Measured values reported in patent US20230399312A1, “SUBSTITUTED PYRIMIDINES AND METHODS OF USE” (THERAVANCE BIOPHARMA R&D IP, LLC, priority 2020, published 2023).

Columns and labels:
[1] = molecular target: T1, recombinant human ALK5 (TGF-βR1) protein (Homo sapiens, UniProt P36897); assay: Biochemical ALK5 (TGF-βR1) assay to measure pKi (LANCE Ultra ULight kinase assay); settings: apparent pKi, converted from pIC50 by Cheng-Prusoff
T1 construct: purchased Life Technologies PR9075A
T1 sequence (P36897 34-503): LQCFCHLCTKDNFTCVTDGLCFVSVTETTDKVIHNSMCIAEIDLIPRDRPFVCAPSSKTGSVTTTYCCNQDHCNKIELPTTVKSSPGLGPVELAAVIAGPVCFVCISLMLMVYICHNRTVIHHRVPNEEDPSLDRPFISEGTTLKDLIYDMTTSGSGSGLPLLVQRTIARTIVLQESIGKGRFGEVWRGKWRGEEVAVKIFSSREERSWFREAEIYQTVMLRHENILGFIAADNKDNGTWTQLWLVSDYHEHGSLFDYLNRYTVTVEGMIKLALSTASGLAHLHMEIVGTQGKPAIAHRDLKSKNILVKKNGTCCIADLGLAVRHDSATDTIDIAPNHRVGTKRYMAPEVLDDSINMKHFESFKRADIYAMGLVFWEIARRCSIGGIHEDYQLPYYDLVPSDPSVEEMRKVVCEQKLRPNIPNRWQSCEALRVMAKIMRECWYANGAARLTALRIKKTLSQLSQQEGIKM
Summary of the method: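 Dose-response series of each compound were preincubated with the kinase for 60 minutes at room temperature. Phosphorylation proceeded for 60 minutes at 37 °C after ATP addition, was quenched with EDTA, and was detected with a europium anti-phospho-Thr1342 antibody by TR-FRET; pKi was calculated from pIC50.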

[2] = test system: TGF-β-stimulated SMAD3 phosphorylation in BEAS-2B cells; assay: Cellular ALK5 potency assay, inhibition of TGF-β stimulated pSMAD3 formation in BEAS-2B cells; type: cell-based; settings: Homo sapiens, pSMAD3, TGF-β 10 ng/mL, read-out: BEAS2B pIC50 (converted)
Summary of the method: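 Reported as pIC50, potency reflects dose-dependent loss of AlphaLISA pSMAD3 signal versus TGF-β-stimulated, compound-free BEAS-2B cells. Compound was applied for 1 h in BSA-containing HBSS buffer before a 30-min challenge with TGF-β at 10 ng/mL final.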

| SMILES | Ki [1] | IC50 [2] |
| --- | --- | --- |
| Cc1cccc(-c2nccc(Nc3ccnc(Nc4cc(C(=O)O[C@@H]5CCN(C)C5)cs4)n3)n2)n1 [Compound 522, [(3R)-1-methylpyrrolidin-3-yl] 5-[[4-[[2-(6-methyl-2-pyridyl)pyrimidin-4-yl]amino]pyrimidin-2-yl]amino]thiophene-3-carboxylate] | 0.0398 to 0.316 nM | 25.1 to 158 nM |
| Cc1cccc(-c2nccc(Nc3ccnc(Nc4ccc(CN5CCNC(C(=O)OCC(C)C)C5)cc4)n3)n2)n1 (stereo not shown) [Compound 523, isobutyl 4-[[4-[[4-[[2-(6-methyl-2-pyridyl)pyrimidin-4-yl]amino]pyrimidin-2-yl]amino]phenyl]methyl] piperazine-2-carboxylate] | 0.0398 to 0.316 nM | ≤ 20 nM |
| Cc1cccc(-c2nccc(Nc3ccnc(Nc4ccc5c(c4)CC(N)C5)n3)n2)n1 (stereo not shown) [Compound 524, N2-(2-aminoindan-5-yl)-N4-[2-(6-methyl-2-pyridyl)pyrimidin-4-yl]pyrimidine-2,4-diamine] | 0.0398 to 0.316 nM | 25.1 to 158 nM |
| Cc1cccc(-c2nccc(Nc3ccnc(Nc4ccc(N5CCC(CNCC(C)C)CC5)cc4)n3)n2)n1 [Compound 525, N2-[4-[4-[(isobutylamino)methyl]-1-piperidyl]phenyl]-N4-[2-(6-methyl-2-pyridyl)pyrimidin-4-yl]pyrimidine-2,4-diamine] | 0.398 to 3.16 nM | 25.1 to 158 nM |
| Cc1cccc(-c2nccc(Nc3ccnc(Nc4ccc5c(c4)OCCO5)n3)n2)n1 [Compound 526, N2-(2,3-dihydro-1,4-benzodioxin-6-yl)-N4-[2-(6-methyl-2-pyridyl)pyrimidin-4-yl]pyrimidine-2,4-diamine] | 3.98 to 31.6 nM | 25.1 to 158 nM |
| Cc1cccc(-c2nccc(Nc3ccnc(Nc4ccc(S(=O)(=O)N5CCN(C6CC6)CC5)cc4)n3)n2)n1 [Compound 527, N2-[4-(4-cyclopropylpiperazin-1-yl)sulfonylphenyl]-N4-[2-(6-methyl-2-pyridyl)pyrimidin-4-yl]pyrimidine-2,4-diamine] | 0.398 to 3.16 nM | 25.1 to 158 nM |
| CCOC(=O)Cc1cc(Nc2ccnc(Nc3ccc(N4CCNCC4)cc3)n2)nc(-c2cccc(C)n2)n1 [Compound 529, ethyl 2-[2-(6-methyl-2-pyridyl)-6-[[2-(4-piperazin-1-ylanilino)pyrimidin-4-yl]amino]pyrimidin-4-yl]acetate] | 3.98 to 31.6 nM | 25.1 to 158 nM |
| Cc1cccc(-c2nccc(Nc3ccnc(Nc4ccc(N5CCNCC5)c(CC(=O)OC5CNC5)c4)n3)n2)n1 [Compound 530, azetidin-3-yl 2-[5-[[4-[[2-(6-methyl-2-pyridyl)pyrimidin-4-yl]amino]pyrimidin-2-yl]amino]-2-piperazin-1-yl-phenyl]acetate] | 0.0398 to 0.316 nM | 200 to 1260 nM |
| Cc1cccc(-c2nccc(Nc3ccnc(Nc4cccc(NC(=O)N5CCN(C(C)C)CC5)c4)n3)n2)n1 [Compound 531, 4-isopropyl-N-[3-[[4-[[2-(6-methyl-2-pyridyl)pyrimidin-4-yl]amino]pyrimidin-2-yl]amino]phenyl]piperazine-1-carboxamide] | 0.0398 to 0.316 nM | 25.1 to 158 nM |
| Cc1cccc(-c2nccc(Nc3ccnc(Nc4cc(C(=O)O)cs4)n3)n2)n1 [Compound 532, 5-[[4-[[2-(6-methyl-2-pyridyl)pyrimidin-4-yl]amino]pyrimidin-2-yl]amino]thiophene-3-carboxylic acid] | 0.398 to 3.16 nM | 200 to 1260 nM |
| Cc1cccc(-c2nccc(Nc3ccnc(Nc4ccc(CN5CCN(CC(C)C)CC5)cc4)n3)n2)n1 [Compound 533, N2-[4-[(4-isobutylpiperazin-1-yl)methyl]phenyl]-N4-[2-(6-methyl-2-pyridyl)pyrimidin-4-yl]pyrimidine-2,4-diamine] | 0.0398 to 0.316 nM | 25.1 to 158 nM |
| Cc1cccc(-c2nccc(Nc3ccnc(Nc4ccc(N5CCN(CCO)CC5)cc4)n3)n2)n1 [Compound 534, 2-[4-[4-[[4-[[2-(6-methyl-2-pyridyl)pyrimidin-4-yl]amino]pyrimidin-2-yl]amino]phenyl]piperazin-1-yl]ethanol] | 0.0398 to 0.316 nM | 25.1 to 158 nM |
| Cc1cccc(-c2nccc(Nc3ccnc(Nc4ccc(-c5cn[nH]c5)cc4)n3)n2)n1 [Compound 535, N4-[2-(6-methyl-2-pyridyl)pyrimidin-4-yl]-N2-[4-(1H-pyrazol-4-yl)phenyl]pyrimidine-2,4-diamine] | 3.98 to 31.6 nM | ≤ 20 nM |
| Cc1cccc(-c2nccc(Nc3ccnc(Nc4csc(C(=O)N5CCN[C@@H](CO)C5)c4)n3)n2)n1 [Compound 536, [(3R)-3-(hydroxymethyl)piperazin-1-yl]-[4-[[4-[[2-(6-methyl-2-pyridyl)pyrimidin-4-yl]amino]pyrimidin-2-yl]amino]-2-thienyl]methanone] | 0.0398 to 0.316 nM | 25.1 to 158 nM |
| Cc1cccc(-c2nccc(Nc3ccnc(Nc4ccc(NCC5CNC5)cc4)n3)n2)n1 [Compound 537, N2-(4-((azetidin-3-ylmethyl)amino)phenyl)-N4-(2-(6-methylpyridin-2-yl)pyrimidin-4-yl)pyrimidine-2,4-diamine] | 0.0398 to 0.316 nM | 25.1 to 158 nM |
| Cc1cccc(-c2nccc(Nc3ccnc(Nc4ccc(-c5cnn(C6COC6)c5)cc4)n3)n2)n1 [Compound 538, N4-(2-(6-methylpyridin-2-yl)pyrimidin-4-yl)-N2-(4-(1-(oxetan-3-yl)-1H-pyrazol-4-yl)phenyl)pyrimidine-2,4-diamine] | 0.0398 to 0.316 nM | 25.1 to 158 nM |
| Cc1cccc(-c2nccc(Nc3ccnc(Nc4ccc(C5CNCCN5)cc4)n3)n2)n1 (stereo not shown) [Compound 539, N4-[2-(6-methyl-2-pyridyl)pyrimidin-4-yl]-N2-(4-piperazin-2-ylphenyl)pyrimidine-2,4-diamine] | ≤ 0.0316 nM | 25.1 to 158 nM |
| Fc1cc(F)c(-c2ncc(C3CC3)c(Nc3ccnc(Nc4ccc(N5CCNCC5)cc4)n3)n2)cc1Cl [Compound 540, N4-[2-(5-chloro-2,4-difluoro-phenyl)-5-cyclopropyl-pyrimidin-4-yl]-N2-(4-piperazin-1-ylphenyl)pyrimidine-2,4-diamine] | 0.0398 to 0.316 nM | 1580 to 10000 nM |
| Cc1cccc(-c2nccc(Nc3ccnc(Nc4ccc(S(=O)(=O)N5CCN(CCO)CC5)cc4)n3)n2)n1 [Compound 541, 2-[4-[4-[[4-[[2-(6-methyl-2-pyridyl)pyrimidin-4-yl]amino]pyrimidin-2-yl]amino]phenyl]sulfonylpiperazin-1-yl]ethanol] | 0.0398 to 0.316 nM | 25.1 to 158 nM |
| Cc1nc(-c2nccc(Nc3ccnc(Nc4ccc(N5CCC(N6CCN(C)CC6)CC5)cc4)n3)n2)ccc1F [Compound 542, N4-[2-(5-fluoro-6-methyl-2-pyridyl)pyrimidin-4-yl]-N2-[4-[4-(4-methylpiperazin-1-yl)-1-piperidyl]phenyl]pyrimidine-2,4-diamine] | 0.0398 to 0.316 nM | 25.1 to 158 nM |
| Cc1cccc(-c2nccc(Nc3ccnc(Nc4csc(C(=O)O[C@@H]5CCNC5)c4)n3)n2)n1 [Compound 543, [(3R)-pyrrolidin-3-yl] 4-[[4-[[2-(6-methyl-2-pyridyl)pyrimidin-4-yl]amino]pyrimidin-2-yl]amino]thiophene-2-carboxylate] | 0.0398 to 0.316 nM | 25.1 to 158 nM |
| Cc1cccc(-c2nccc(Nc3ccnc(Nc4csc(C(=O)O[C@H]5CCNC5)c4)n3)n2)n1 [Compound 544, [(3S)-pyrrolidin-3-yl] 4-[[4-[[2-(6-methyl-2-pyridyl)pyrimidin-4-yl]amino]pyrimidin-2-yl]amino]thiophene-2-carboxylate] | 0.0398 to 0.316 nM | 25.1 to 158 nM |
| Cc1cccc(-c2nccc(Nc3ccnc(Nc4ccc(C(=O)OCC5CNC5)nc4)n3)n2)n1 [Compound 545, azetidin-3-ylmethyl 5-((4-((2-(6-methylpyridin-2-yl)pyrimidin-4-yl)amino)pyrimidin-2-yl)amino)picolinate] | 0.0398 to 0.316 nM | 25.1 to 158 nM |
| Cc1cccc(-c2nccc(Nc3ccnc(Nc4ccc(C(=O)O[C@@H]5CCNC5)nc4)n3)n2)n1 [Compound 546, [(3R)-pyrrolidin-3-yl] 5-[[4-[[2-(6-methyl-2-pyridyl)pyrimidin-4-yl]amino]pyrimidin-2-yl]amino]pyridine-2-carboxylate] | 0.0398 to 0.316 nM | 25.1 to 158 nM |
| Cc1cccc(-c2nccc(Nc3ccnc(Nc4ccc(C(=O)O[C@H]5CCNC5)nc4)n3)n2)n1 [Compound 547, [(3S)-pyrrolidin-3-yl] 5-[[4-[[2-(6-methyl-2-pyridyl)pyrimidin-4-yl]amino]pyrimidin-2-yl]amino]pyridine-2-carboxylate] | 0.0398 to 0.316 nM | 25.1 to 158 nM |
| Cc1cccc(-c2nccc(Nc3ccnc(Nc4cncc(C(=O)OCC5CNC5)c4)n3)n2)n1 [Compound 548, azetidin-3-ylmethyl 5-[[4-[[2-(6-methyl-2-pyridyl)pyrimidin-4-yl]amino]pyrimidin-2-yl]amino]pyridine-3-carboxylate] | 0.398 to 3.16 nM | 25.1 to 158 nM |
